The values below come from US9180215B2, “Positron emission tomography imaging method” (PURDUE RESEARCH FOUNDATION, priority 2007, dated 2015).

Each structure is given as a SMILES string.

The target of the test is T1, folate receptors on KB cells (Homo sapiens, UniProt P15328).
T1 construct: endogenous in cells; host or cells: KB cells
The test is described as follows: Competitive binding assay using KB cells (displacement of 3H-folic acid). The following applies: competitive binding at folate receptors on KB cells, 10 nM 3H-folic acid, 37° C., 1 h. As for the experimental part:
Competitive binding assay using KB cells. Relative binding affinity of the folate-fluoro-phenyl conjugate was evaluated according to the standard literature protocol by Westerhof et. al. (Mol Pharmacol, 1995, 48, 459-471) and C. P. Leamon et. al. (Bioconjugate Chem., 2006, 17 (5), 1226-1232) with minor modification.
Then cells were rinsed three times with 250 μL of PBS (phosphate saline buffer) and one time with trichloro-acetic acid. 1% sodium dodecylsulfate (250 μL) in PBS were added to each well and after 10 min cell lysates were transferred to individual vials containing 3 mL of scintillation cocktail and radioactivity was counted.
(Loss of bound radioactivity is the signal in a displacement assay; it reports binding, not function.)

T1 sequence (P15328 25-234): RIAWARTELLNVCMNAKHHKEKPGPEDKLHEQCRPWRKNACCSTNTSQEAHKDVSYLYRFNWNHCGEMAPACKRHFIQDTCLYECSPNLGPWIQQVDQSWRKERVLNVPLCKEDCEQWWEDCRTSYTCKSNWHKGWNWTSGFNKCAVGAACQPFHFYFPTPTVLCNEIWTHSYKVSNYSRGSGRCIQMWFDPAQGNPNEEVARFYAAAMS

Regarding `Nc1nc2ncc(CNc3ccc(C(=O)N[C@@H](CCC(=O)NCCNC(=O)CCOCCOCCOCCOCCOCCOCCNC(=O)c4ccc(F)cc4)C(=O)O)cc3)nc2c(=O)[nH]1` [compound of FIG. 1], the Kd came to 23.8 nM.

A word on the Kd: it is the equilibrium constant for the complex coming apart.
